Experimental data: paper PMC11869560, “Anticancer and cancer preventive activities of shogaol and curcumin from Zingiberaceae family plants in KG-1a leukemic stem cells” (BMC Complementary Medicine and Therapies, 2025)
Converted amounts (≈) assume the structure as drawn.

Tests used:
KG-1a cells [1] = assay: MTT cytotoxicity assay in KG-1a cells; assay type: cell-based, human; conditions: for Selectivity index (SI): IC50 for normal cells (PBMCs) / IC50 for cancer cells (KG-1a)
Description: (§1) MTT (3-(4,5-dimethylthiazol-2-yl)-2,5-diphenyltetrazolium bromide) assay was used to investigate the cytotoxicity of the test samples. KG-1a (1.5 × 10^4 cells/well), K562 (1.0 × 10^4 cells/well), PBMCs (1.0 × 10^5 cells/well), A549 (5.0 × 10^3 cells/well), MCF-7 (5.0 × 10^3 cells/well), and HeLa (5.0 × 10^3 cells/well) were seeded into a 96-well plate and incubated overnight at 37 °C with 5% CO2. […] After that, 5 mg/mL of MTT dye solution (Sigma-Aldrich, MA, USA) was added and incubated for 4 h. The produced formazan crystals were dissolved in 200 µL of DMSO (Sigma-Aldrich, MA, USA); then, the optical density (OD) was measured using an ELISA plate reader (Metertech, Taipei, Taiwan) at 578 nm with a reference wavelength of 630 nm. The percentage of surviving cells was calculated from the absorbance values of the test and control wells using the following Equation. 1 [drawing 1]
(§2) where ODsample is a mean absorbance in test well and ODvehicle control is a mean absorbance in VC well. The average percentage of surviving cells at each concentration obtained from triplicate experiments was plotted as a dose-response curve. Inhibitory concentration values at 50% growth (IC50 value) were defined as the lowest concentration of the test sample that inhibited cell growth by 50% compared to the untreated control.
(§3) To calculate IC50 values, a dose-response curve was fitted using non-linear regression analysis, as described in the GraphPad Prism guidelines (https://www.graphpad.com/support/faq/how-to-determine-an-icsub50sub/). The IC50 value was obtained by determining the point at which the curve intersected 50% growth inhibition. Non-linear regression graphs of the dose-response curve for each compound are provided in the supplementary data file (Figs. S1–S8).
where IC50 N is IC50 for normal cells and IC50 C is IC50 for cancer cells which were treated with the same compounds in both cells.

PBMCs = assay: MTT cytotoxicity assay in PBMCs; assay type: cell-based, human
Description: PBMCs were isolated from blood samples using the Ficoll-Hypaque technique. Initially, 10–20 mL of blood was collected in a heparin tube at a ratio of 1:500 from a minimum of three healthy volunteers. Subsequently, the blood samples were diluted with Phosphate buffer saline (PBS), pH 7.4, at a ratio of 1:1 to reduce viscosity. Histopaque-1077 (Sigma-Aldrich, MA, USA) was then underlaid the diluted sample and centrifuged at 400×g for 30 min. The resulting PBMCs were collected, washed with PBS, pH 7.4, and prepared for further experiments.
as §1, §2, §3

RAW264.7 cells = assay: Cytotoxicity (IC20, cell viability) in RAW264.7 cells; assay type: cell-based; conditions: incubation for 48 h
Description: MTT (3-(4,5-dimethylthiazol-2-yl)-2,5-diphenyltetrazolium bromide) assay was used to investigate the cytotoxicity of the test samples. […] After that, 5 mg/mL of MTT dye solution (Sigma-Aldrich, MA, USA) was added and incubated for 4 h. The produced formazan crystals were dissolved in 200 μL of DMSO (Sigma-Aldrich, MA, USA); then, the optical density (OD) was measured using an ELISA plate reader ([…], Taiwan) at 578 nm with a reference wavelength of 630 nm. The percentage of surviving cells was calculated from the absorbance values of the test and control wells using the following Equation. 1 [drawing 1] […] Afterward, supernatants were collected, and the levels of TNF-α and NO were measured using the Mouse TNF alpha Uncoated ELISA Kit (InvitrogenTM, ThermoFisher Scientific, MA, USA) and the Total Nitric Oxide Assay Kit (InvitrogenTM, ThermoFisher Scientific, MA, USA), respectively, according to the manufacturer's instructions.

[2] = test system: NO production in LPS-activated RAW264.7 cells; assay: NO production in LPS-activated RAW264.7 cells; assay type: cell-based, mouse; conditions: IC20 concentration, LPS-activated, 24 h
Description: For the measurement of tumor necrosis factor-alpha (TNF-α) and NO, RAW264.7 cells were pre-treated with plant extracts and active compounds at a non-cytotoxic dose (IC20) (Table S9) or 1 µg/mL of dexamethasone (positive control) in a 24-well plate for 2 h. Subsequently, 1 µg/mL of lipopolysaccharide (LPS) (Cat No. 00497693, Invitrogen™, MA, USA) was added to each well, and the cells were incubated for an additional 24 h to allow sufficient time for the compounds to exert measurable anti-inflammatory effects while maintaining cell viability. Afterward, supernatants were collected, and the levels of TNF-α and NO were measured using the Mouse TNF alpha Uncoated ELISA Kit (Invitrogen™, ThermoFisher Scientific, MA, USA) and the Total Nitric Oxide Assay Kit (Invitrogen™, ThermoFisher Scientific, MA, USA), respectively, according to the manufacturer’s instructions.
The percentage of NO or cytokine inhibitions were calculated using the following equation: […]
where A is the level of cytokine or NO without treatment, and B is the level of cytokine or NO with treatment.

[3] = test system: WT1 protein expression in KG-1a cells; assay: WT1 protein expression in KG-1a cells by Western blotting; assay type: cell-based, human; conditions: IC20 concentrations, 48 h, normalized to GAPDH
Description: (§4) KG-1a cells (1.5 × 10^5 cells/mL) were treated with compounds or extracts at different incubation times. Then, the cells were harvested and the whole proteins were extracted using a RIPA buffer (25 mM Tris-base, pH 7.6, 0.1% SDS, 1% Triton X-100, 150 mM NaCl, and 1 mM EDTA). The protein concentration was measured using the Folin-Lowry or Bradford assay. The whole protein lysates (30 µg/lane) were then separated through 7.5% SDS-PAGE under reducing conditions and then transferred to PVDF membranes. The membranes were blocked in 5% skim milk in PBS, pH 7.4 at RT for 2 h, then, target proteins were probed with specific primary antibodies (anti-WT1, anti-CD34, anti-GAPDH, anti-cleaved caspase-3, anti-cleaved PARP, anti-phospho-Akt, anti-phospho-c-Jun, anti-phospho-SAPK/JNK, and anti-YAP/TAZ) indicated in Table S10 which diluted at a ratio of 1:1,000 in PBS, pH 7.4 at RT for 2 h. After incubation, the membranes were rinsed 6 times with 0.1% Tween-20 (Sigma-Aldrich, MA, USA) in PBS, pH 7.4 (PBS-T), each time for 5 min. The reaction was followed by HRP-conjugated secondary antibody at 1:20,000 dilution in PBS, pH 7.4 at RT for 2 h, then, the membranes were rinsed 6 times for 5 min each with PBS-T. The proteins were shown using Immobilon Forte Western HRP substrate (Millipore, MA, USA). Finally, the protein band signal was quantified by using a scan densitometer (Bio-Rad Laboratories, CA, USA).

[4] = test system: CD34 protein expression in KG-1a cells; assay: CD34 protein expression in KG-1a cells by Western blotting; assay type: cell-based, human; conditions: IC20 concentrations, 48 h, normalized to GAPDH
Description: as §4

KG-1a cells [5] = assay: Trypan blue exclusion test, cell numbers of KG-1a cells; assay type: cell-based, human; conditions: IC20 concentrations, 48 h
Description: (§5) This test was used to confirm the cytotoxicity of the test samples. The cancer cells after exposure to crude ethanolic extracts and active compounds for 48 h were harvested and washed with ice-cold PBS, pH 7.4 for 3 times. Then, the cells were resuspended with PBS, pH 7.4. The cell suspensions were diluted with PBS, pH 7.4 at the appropriate dilution before being mixed with 0.2% trypan blue solution at 1:2 dilution for cell count on a hemocytometer. From this test, the viable cells and the dead cells could also be obviously detected.
as §5, with “crude ethanolic extracts and active compounds. KG-1a” for “the test samples. The cancer”

[6] = active compounds and drugs, MTT, 48 h

Compound: CCCCC[C@H](O)CC(=O)CCc1ccc(O)c(OC)c1 [Gingerol, gingerol]
- Selectivity index (SI) (KG-1a cells [1]; 48 h): > 1.30
- Selectivity index (SI) (KG-1a cells [1]; 48 h, listed as gingerol): greater than 1
- IC50 value R1 (KG-1a cells [1]; Table S7, KG-1a, first replicate): 77.86 µg/mL (≈ 264 µM)
- IC50 value R3 (KG-1a cells [1]; Table S7, KG-1a, third replicate): 77.08 µg/mL (≈ 262 µM)
- IC50 KG-1a (KG-1a cells [1]; [6]): 76.77 ± 1.28 µg/mL (≈ 261 µM)
- IC20 KG-1a (inhibitory concentration at 20% growth) (KG-1a cells [1]; incubation for 48 h): 14.09 ± 3.87 µg/mL (≈ 47.9 µM)
- IC50 value R1 (PBMCs; Table S8, PBMCs, first replicate): > 100 µg/mL
- IC50 value Mean (PBMCs; Table S8, PBMCs, mean of R1-R3): > 100 µg/mL
- IC50 value R3 (PBMCs; Table S8, PBMCs, third replicate): > 100 µg/mL
- IC50 PBMCs (PBMCs; [6]): > 100 µg/mL
- IC20 PBMCs (inhibitory concentration at 20% growth) (PBMCs; incubation for 48 h): 76.94 ± 4.13 µg/mL (≈ 261 µM)
- IC20 RAW264.7 (inhibitory concentration at 20% growth) (RAW264.7 cells): 16.73 ± 4.64 µg/mL (≈ 56.8 µM)
- effect on NO production compared to dexamethasone (positive control) [2]: had no effect
- decrease of WT1 protein level compared to VC [3]: 43.98 ± 8.93%
- decrease of CD34 protein level compared to VC [4]: 31.95 ± 5.70%
- decrease of total cell number compared to VC (KG-1a cells [5]): 31.39 ± 8.69%
- normalized viable cell counts (KG-1a cells [5]): 979.50 ± 8.90 × 10^3 cells per 1 million total cells
